The subject of one test is H9c2. The experiment in a line: cells. Format: functional, cell-based. The settings on record: Rattus norvegicus, H9c2, Myocardium.
Test [1] is described as follows: cells. Type of test: functional, cell-based.
Test [2] can be described thus: cells. Format: functional, cell-based. This is another data set of the same source.
Test [3] can be described thus: NIH-3T3 fibroblast cytotoxicity, dose response, cytotoxicity control, cell-based, fluorescence, Alamar Blue, secondary assay (AID 2327).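 Further: NIH-3T3 mouse fibroblasts cultured with fluconazole at 8 µg/mL.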 Format: functional.
The nature of test [4]: Luminescence Cell-Based Dose Response HTS to Identify Inhibitors of 5'UTR Stem-Loop Driven Prion Protein mRNA Translation in H4 Neuroglioblastoma Cells. [Related pubchem assays: 1827 (Project Summary), 1813 (Primary HTS)]. Type of test: functional.
Test [5] can be described thus: alpha-synuclein stem-loop luciferase translation blockers – H4 neuroglioma cells, luminescence, confirmation (AID 1988). Format: functional, cell-based.
A short description of test [6]: luciferase reporter signal suppression in cells – H4 neuroglioma cells, luminescence, dose response (AID 1990). Format: functional, cell-based.
A short description of test [7]: viability of uninfected HEp-2 cells – cell-based, HTS, cytotoxicity control for RSV inhibitor project, dose response (AID 2410). Format: functional. The settings on record: human respiratory syncytial virus.
Test [8] addresses T1, Corticotropin-releasing factor receptor 2/Corticotropin-releasing factor-binding protein (Homo sapiens, UniProt P24387+Q13324).
T1 sequence (Q13324 whole entry): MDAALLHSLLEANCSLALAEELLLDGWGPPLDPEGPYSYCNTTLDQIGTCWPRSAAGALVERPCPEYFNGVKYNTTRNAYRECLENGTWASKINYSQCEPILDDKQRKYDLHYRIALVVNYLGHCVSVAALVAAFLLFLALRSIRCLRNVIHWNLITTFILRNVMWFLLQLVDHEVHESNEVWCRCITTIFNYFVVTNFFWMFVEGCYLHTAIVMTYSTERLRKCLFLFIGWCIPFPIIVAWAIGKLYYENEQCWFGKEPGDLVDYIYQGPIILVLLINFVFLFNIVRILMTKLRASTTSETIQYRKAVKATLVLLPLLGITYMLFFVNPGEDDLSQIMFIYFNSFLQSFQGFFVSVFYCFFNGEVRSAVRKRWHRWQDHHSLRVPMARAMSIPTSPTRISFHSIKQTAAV
T1 sequence (P24387 whole entry): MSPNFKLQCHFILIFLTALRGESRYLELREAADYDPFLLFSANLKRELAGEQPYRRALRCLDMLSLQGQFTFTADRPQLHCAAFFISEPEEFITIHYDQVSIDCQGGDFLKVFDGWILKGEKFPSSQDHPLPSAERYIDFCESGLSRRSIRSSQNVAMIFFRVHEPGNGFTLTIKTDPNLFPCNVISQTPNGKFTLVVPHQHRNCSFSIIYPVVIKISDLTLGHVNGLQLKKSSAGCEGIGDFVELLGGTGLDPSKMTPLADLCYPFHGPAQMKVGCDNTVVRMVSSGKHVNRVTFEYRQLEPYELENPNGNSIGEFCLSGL
The experiment in a line: Dose Response confirmation of uHTS hits for small molecule antagonists of the CRF-binding protein and CRF-R2 receptor complex. Format: functional. The settings on record: read-out: IC50_Mean.

In test [9] the target is T1, Corticotropin-releasing factor receptor 2/Corticotropin-releasing factor-binding protein. The experiment in a line: activators of CRF receptor 2 with binding protein – uHTS hits, confirmation (AID 602473). Type of test: functional. The settings on record: read-out: EC50_Mean.
In the next test the target is Cytochrome P450 3A4 (Homo sapiens, UniProt P08684).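 Further: CYP3A4 tested as one member of a cytochrome P450 panel screen.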
For a further test, the target named is Cytochrome P450 2C19 (Homo sapiens, UniProt P33261). In words: Cytochrome panel assay with activity outcomes. Panel member name: p450-cyp2c19 Compounds with AC50 equal or less than 10 uM are considered active. Type of test: functional. The conditions noted are these: read-out: AC50.
A further test relates to INS1. The experiment in a line: INS-1E survival protection against cytokine death – cell-based, luminescence, retest, dose response (AID 449756).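 Further: cell death triggered by IL-1 beta plus TNF-alpha plus IFN-gamma mixture; protective hits raise ATP signal compared with cytokine alone wells.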 Type of test: functional. The conditions noted are these: Rattus norvegicus.
A short description of test [10]: viability of PTEN-deleted HCT116 cells – cell-based, HCT116 PTEN knockout, dose response (AID 1047).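 Further: HCT116 colon tumor cells with PTEN knocked out; cells exposed to compound for 60 hours before readout; potency for loss of cell viability measured by luminescence.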 Type of test: functional.
Test [11] has as its target T2, Heat shock factor protein 1 (Mus musculus, UniProt P38532).
T2 sequence (P38532 whole entry): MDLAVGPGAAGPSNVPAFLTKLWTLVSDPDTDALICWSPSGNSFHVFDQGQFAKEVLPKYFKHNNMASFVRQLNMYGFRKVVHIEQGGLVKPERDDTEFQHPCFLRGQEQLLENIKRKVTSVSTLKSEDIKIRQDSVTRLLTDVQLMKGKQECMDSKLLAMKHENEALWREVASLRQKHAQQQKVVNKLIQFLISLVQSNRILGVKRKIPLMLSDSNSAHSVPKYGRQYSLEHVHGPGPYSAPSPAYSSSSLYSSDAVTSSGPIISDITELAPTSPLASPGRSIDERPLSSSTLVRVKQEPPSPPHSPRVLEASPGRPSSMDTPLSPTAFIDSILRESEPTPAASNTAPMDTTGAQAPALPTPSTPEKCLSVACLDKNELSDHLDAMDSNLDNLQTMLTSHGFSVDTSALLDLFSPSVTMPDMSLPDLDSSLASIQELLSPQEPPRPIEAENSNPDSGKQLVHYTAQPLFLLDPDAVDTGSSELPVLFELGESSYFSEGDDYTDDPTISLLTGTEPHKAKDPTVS
The experiment in a line: decrease of HSF1-responsive luciferase luminescence – cell-based, NIH3T3, dose retest, confirmation (AID 2382).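 Further: NIH3T3 fibroblasts with HSF1-driven luciferase reporter stressed by proteasome inhibitor MG132; luminescence from HSF1-driven luciferase expression after 8 hours of MG132 stress.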 Format: functional.

Test [12] can be described thus: Luminescence Cell-Based Dose Response HTS to Identify Activators of Luciferase Translation or Activity in H4 […] Cells. [Related pubchem assays: 1829 (Project Summary), 1814 (Primary HTS)]. Format: functional.
A short description of test [13]: Luminescence Cell-Based Dose Confirmation HTS to Identify Activators of 5'UTR Stem-Loop Driven Alpha-Synuclein mRNA Translation in H4 Neuroglioblastoma Cells. [Related pubchem assays: 1829 (Project Summary), 1814 (Primary HTS)]. Type of test: functional.
In the next test the test system is H4. The experiment in a line: Luminescence Cell-Based Dose Response HTS to Identify Activators of 5'UTR Stem-Loop Driven Prion Protein mRNA Translation in H4 Neuroglioblastoma Cells. [Related pubchem assays: 1829 (Project Summary), 1814 (Primary HTS)]. The settings on record: Homo sapiens. Type of test: functional.

Activity calls are given as the source filed them.

Sequence of Cytochrome P450 2C19 (P33261 whole entry): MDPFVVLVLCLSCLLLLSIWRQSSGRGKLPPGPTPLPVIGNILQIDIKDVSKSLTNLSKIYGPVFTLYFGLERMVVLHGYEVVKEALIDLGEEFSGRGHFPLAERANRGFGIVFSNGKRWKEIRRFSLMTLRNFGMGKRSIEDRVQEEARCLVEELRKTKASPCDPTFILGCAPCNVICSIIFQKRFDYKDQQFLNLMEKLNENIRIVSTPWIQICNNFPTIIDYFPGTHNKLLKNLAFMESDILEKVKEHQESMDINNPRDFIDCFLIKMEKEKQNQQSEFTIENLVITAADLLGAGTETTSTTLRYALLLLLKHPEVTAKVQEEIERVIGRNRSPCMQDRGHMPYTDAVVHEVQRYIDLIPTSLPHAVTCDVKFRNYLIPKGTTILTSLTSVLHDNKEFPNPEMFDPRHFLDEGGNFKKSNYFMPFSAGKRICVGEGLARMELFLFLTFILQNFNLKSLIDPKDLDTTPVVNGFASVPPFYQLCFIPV
Sequence of Cytochrome P450 3A4 (P08684 whole entry): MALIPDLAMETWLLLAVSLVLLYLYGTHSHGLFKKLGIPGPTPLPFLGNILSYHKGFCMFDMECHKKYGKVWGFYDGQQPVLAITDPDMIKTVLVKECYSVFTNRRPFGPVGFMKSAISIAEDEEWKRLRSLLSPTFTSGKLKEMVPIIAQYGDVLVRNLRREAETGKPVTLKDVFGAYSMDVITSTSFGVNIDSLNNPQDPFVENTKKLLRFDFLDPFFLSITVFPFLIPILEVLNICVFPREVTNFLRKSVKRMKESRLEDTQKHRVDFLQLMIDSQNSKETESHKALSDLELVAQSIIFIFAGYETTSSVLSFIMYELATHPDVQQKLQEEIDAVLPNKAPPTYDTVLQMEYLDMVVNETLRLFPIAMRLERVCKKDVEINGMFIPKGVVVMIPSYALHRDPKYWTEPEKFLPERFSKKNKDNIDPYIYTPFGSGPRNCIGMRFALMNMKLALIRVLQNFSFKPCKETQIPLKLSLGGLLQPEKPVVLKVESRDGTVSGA

With `CCOC(=O)CSc1nc(O)c2ccccc2n1`, the IC50 with H9c2 is > 79 µM (inactive).
Take `COC(=O)CNC(=O)CSc1nnc2cc(C)c3ccccc3n12`: the EC50 in the test “cells [1]” and in “cells [2]” was > 350 µM (not active) in each case.
Turning to `Cc1ccc(CNC(=O)CCc2nc(O)c3ccccc3n2)cc1`, in the test on H9c2, the IC50 is 12.5 µM (active).
`COc1ccc(CN2C(=O)NC(=O)/C(=C\NNC(=O)c3ccccc3)C2=O)cc1`: the EC50 in test [3] is 56 µM (active).
As for `O=C(Nc1ccc2nc(N3CCOCC3)sc2c1)c1cc2ccccc2o1`, in the test with H9c2, the IC50 was > 79 µM (inactive).
Regarding `CSc1ccccc1NC(=O)c1ccc(N2CC3CC(C2)c2cccc(=O)n2C3)c(NC(=O)c2cccnc2)c1` (configuration not stated), the EC50 in [4], in [5] and in [6] was > 120 µM (not active) in each case.
As for `CC(C)OC(=O)/C(C#N)=C/c1cn(Cc2ccccc2)c2ccccc12`, the EC50 in [4] is 13.4 µM (active); in [5] it was 7.08 µM (active); in test [6], 11.5 µM (active).
`O=C(N[C@@H](Cc1ccccc1)C(=O)OCc1ccccc1)c1[nH]cnc1C(=O)N1CCc2ccccc2C1`: the CC50 in test [7] is 26.1 µM (active).
On to `COc1cc(-c2cc(C(=O)N3CCN(c4ccccn4)CC3)c3ccccc3n2)cc(OC)c1OC`, for which the IC50 in the test with H9c2 is > 79 µM (inactive).
In the case of `COc1cc(CNc2ccc(N3CCCC3)cc2)ccc1OCc1ccccc1`, in [7], the CC50 is 13 µM (active).
Take `CCN(CC)S(=O)(=O)c1ccc2c(c1)N(CC(=O)NCc1ccco1)C(=O)CO2`: the IC50 in test [8] is > 47.1 µM (inactive). For the same compound, the EC50 in test [9] is > 53 µM (inactive).
Take `CCc1cc(=O)oc2cc(OC(C)C(=O)NCC(O)c3ccccc3)c(Cl)cc12` (configuration not stated): the EC50 in test [4], in test [5] and in test [6] was > 120 µM (not active) each time.
`CCn1c(O)c(/C=N/N=C2CCCCC2)c2cc(C3=NNC(=O)CC3)ccc21`: in the test on H9c2, the IC50 is > 79 µM (inactive).
For the compound `O=C(CCCc1ccccc1)Nc1ccccn1`, the EC50 in the test “cells [1]” and in “cells [2]” was > 350 µM (not active) in each case.
In the case of `COc1ccc(C(=O)Nc2ccc3nc4n(c(=O)c3c2)CCCCC4)cc1OC`, the IC50 in test [8] is > 47.1 µM (inactive). In addition, the EC50 in test [9] is > 53 µM (inactive).
Take `CC(C)COc1ccc(CN=C(S)Nc2ccccc2)cc1Cl`: the IC50 in test [8] is > 47.1 µM (inactive). Moreover, the EC50 in test [9] was > 53 µM (inactive).
As to `CC1CC(C)CN(S(=O)(=O)c2ccc3c(c2)oc(=O)n3CC(=O)NCCCOC(C)C)C1` (configuration not stated), the EC50 in “cells [1]” and in “cells [2]” was > 350 µM (not active) throughout.
Regarding `O=S(=O)(NC(=S)NC1CCCCC1)c1ccc(Br)cc1`, the IC50 in test [8] is > 47.1 µM (inactive). Moreover, the EC50 in test [9] is > 53 µM (inactive).
For the compound `O=C(Nc1ccc(Cl)cn1)c1cccc(S(=O)(=O)N2CCCC2)c1`, the IC50 in test [8] is > 47.1 µM (inactive). Further, the EC50 in test [9] was > 53 µM (inactive).
Consider `Cc1cnc(NC(=O)CSc2nc(O)c3ccccc3n2)s1`, for which the IC50 in the test on H9c2 was > 79 µM (inactive).
For `COc1ccc2sc(NC(=O)NC(=O)c3c(Cl)cccc3Cl)nc2c1`, the half-maximal cytotoxic concentration (CC50) in [7] is 17.3 µM (active).
As for `O=C1NC(=O)N(CCNc2ncc(C(F)(F)F)cc2Cl)C(=O)C1/C=N/OCc1c(F)cccc1Cl` (configuration not stated), the IC50 in test [8] was > 47.1 µM (inactive). In addition, the values for the concentration at half-maximal activity (AC50) on Cytochrome P450 3A4 and at Cytochrome P450 2C19 were 3.16 µM (inconclusive) and 8.91 µM (inconclusive), respectively. Further, the EC50 in [9] was > 53 µM (inactive).
For the compound `O=C(N/N=C/c1ccccc1O)/C(=C/c1ccccc1)CCO`, in the test with INS1, the AC50 is 2.57 µM (active). For the same compound, the EC50 in “cells [1]” is 50.4 µM (active); in the test “cells [2]” it was > 350 µM (not active).
In the case of `Cc1ccc(C(=O)NCc2cccnc2)o1`, in test [8], the IC50 was > 47.1 µM (inactive). Moreover, the EC50 in [9] is > 53 µM (inactive).
On to `O=C(Nc1ccc(Cl)cc1)NN1CC(=O)N(c2cccc(C(F)(F)F)c2)CC1=O`, for which the EC50 in “cells [1]” and in the test “cells [2]” was > 350 µM (not active) each time.
Regarding `CN(C)c1nn(C(=O)Nc2cccc(C(F)(F)F)c2)cc1-c1ccccc1`, the EC50 in [10] is 42.1 µM (active).
As to `Nc1ccnn1-c1ccccc1`, the EC50 in “cells [1]” and in the test “cells [2]” was > 350 µM (not active) in each case.
`COc1cc(/C=N/NC(=O)NC23CC4CC(CC(C4)C2)C3)ccc1OCC(N)=O`: in the test with H9c2, the IC50 was > 79 µM (inactive).
On to `NC(=O)c1nsc(C(=O)N(c2ccccc2)C(C(=O)NCc2ccc(F)cc2)c2ccc(O)cc2)c1N` (configuration not stated), for which the IC50 in the test on H9c2 was > 79 µM (inactive).
Regarding `Clc1ccc(-c2nnc(NCc3ccccc3)c3ccccc23)cc1`, the IC50 in test [8] is > 47.1 µM (inactive). Besides, the EC50 in test [9] is > 53 µM (inactive).
For the compound `Fc1ccc(-n2cc(-c3ccccc3)c3c(N4CCOCC4)ncnc32)cc1`, the IC50 with H9c2 was > 79 µM (inactive). Besides, the EC50 in test [11] was 2.3 µM (active).
Regarding `NC(=O)NC1CCCc2c1[nH]c1ccc(Cl)cc21` (configuration not stated), the 50% cytotoxic concentration (CC50) in test [7] is 18 µM (active).
In the case of `CCN(CC(=O)Nc1c(F)cccc1F)C(=O)c1ccc(S(=O)(=O)N2CCC(C)CC2)cc1`, the IC50 in [8] is > 47.1 µM (inactive). Also, the EC50 in test [9] is > 53 µM (inactive).
As for `COc1ccc2nc(O)c(CN(c3ccccc3OC)S(=O)(=O)c3ccccc3)cc2c1`, the EC50 in [12] was 14.3 µM (active); in [13], > 120 µM (not active); in the test with H4 it was > 120 µM (not active). The IC50 in the test on H9c2 is 13.3 µM (active).
Regarding `Cn1c(SCC(=O)Nc2ccccc2)nnc1-c1ccc(NC(=O)CCc2ccccc2)cc1`, the EC50 in the test “cells [1]” and in the test “cells [2]” was > 350 µM (not active) throughout.
Regarding `CCc1nn(CCCC(=O)N2CCN(c3cccc(C)c3C)CC2)c(=O)c2cc3occc3n12`, in test [7], the CC50 is 17 µM (active).
For `O=C(O)c1ccccc1OCCOc1ccccc1C(=O)O`, the EC50 in the test “cells [1]” and in the test “cells [2]” was > 350 µM (not active) each time.
With `Cc1ccc(N(C(=O)Cn2nnc(-c3ccccc3F)n2)C(C(=O)NC2CCCC2)c2ccncc2)cc1` (configuration not stated), in [8], the IC50 is > 47.1 µM (inactive). Also, the EC50 in test [9] is > 53 µM (inactive).
In the case of `O=C(CCN1CCCCC1)c1ccc2c(c1)OCO2`, in [8], the IC50 was > 47.1 µM (inactive). For the same compound, the EC50 in test [9] is > 53 µM (inactive).
As for `O=C(NN=Cc1cccc([N+](=O)[O-])c1)c1cc(-c2cccnc2)nc2ccccc12`, the IC50 in the test on H9c2 was > 79 µM (inactive).
